# Test results: ChEMBL document CHEMBL5291721, “A preclinical secondary pharmacology resource illuminates target-adverse drug reaction associations of marketed drugs” (Nat Commun, 2023)
# Experiments:
# [1] = molecular target: Gamma-aminobutyric acid receptor subunit alpha-1 (Rattus norvegicus, UniProt P62813)
# Progesterone receptor [2] = molecular target: T1, Progesterone receptor (Homo sapiens, UniProt P06401); format: functional
# T1 sequence (P06401 whole entry): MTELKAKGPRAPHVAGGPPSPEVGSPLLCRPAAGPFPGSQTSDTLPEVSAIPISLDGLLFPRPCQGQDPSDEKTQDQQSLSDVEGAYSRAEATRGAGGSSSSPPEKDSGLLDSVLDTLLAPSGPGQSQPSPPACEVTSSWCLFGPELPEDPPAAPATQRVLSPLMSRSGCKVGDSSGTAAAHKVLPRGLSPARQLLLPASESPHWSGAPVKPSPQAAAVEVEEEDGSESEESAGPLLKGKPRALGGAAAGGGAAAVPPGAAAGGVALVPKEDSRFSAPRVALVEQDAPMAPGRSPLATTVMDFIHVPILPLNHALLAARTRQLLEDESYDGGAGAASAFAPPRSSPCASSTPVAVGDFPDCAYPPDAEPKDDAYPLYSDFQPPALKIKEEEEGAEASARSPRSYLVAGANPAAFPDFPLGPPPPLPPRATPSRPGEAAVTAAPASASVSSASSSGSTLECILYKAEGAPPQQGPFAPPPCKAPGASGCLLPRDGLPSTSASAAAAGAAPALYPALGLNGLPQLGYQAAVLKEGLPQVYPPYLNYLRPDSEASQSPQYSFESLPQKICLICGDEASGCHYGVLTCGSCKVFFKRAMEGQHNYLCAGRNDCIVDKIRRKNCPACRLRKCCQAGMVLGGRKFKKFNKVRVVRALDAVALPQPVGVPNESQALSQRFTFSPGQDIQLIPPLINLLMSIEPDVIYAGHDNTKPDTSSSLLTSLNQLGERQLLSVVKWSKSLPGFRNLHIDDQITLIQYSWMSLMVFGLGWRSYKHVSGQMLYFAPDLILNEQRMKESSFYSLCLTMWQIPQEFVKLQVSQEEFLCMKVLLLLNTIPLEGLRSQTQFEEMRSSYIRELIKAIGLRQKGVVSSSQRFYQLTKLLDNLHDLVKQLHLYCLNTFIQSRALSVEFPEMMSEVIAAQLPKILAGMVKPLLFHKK
# [3] = molecular target: T2, Equilibrative nucleoside transporter 1 (Homo sapiens, UniProt Q99808)
# T2 sequence (Q99808 whole entry): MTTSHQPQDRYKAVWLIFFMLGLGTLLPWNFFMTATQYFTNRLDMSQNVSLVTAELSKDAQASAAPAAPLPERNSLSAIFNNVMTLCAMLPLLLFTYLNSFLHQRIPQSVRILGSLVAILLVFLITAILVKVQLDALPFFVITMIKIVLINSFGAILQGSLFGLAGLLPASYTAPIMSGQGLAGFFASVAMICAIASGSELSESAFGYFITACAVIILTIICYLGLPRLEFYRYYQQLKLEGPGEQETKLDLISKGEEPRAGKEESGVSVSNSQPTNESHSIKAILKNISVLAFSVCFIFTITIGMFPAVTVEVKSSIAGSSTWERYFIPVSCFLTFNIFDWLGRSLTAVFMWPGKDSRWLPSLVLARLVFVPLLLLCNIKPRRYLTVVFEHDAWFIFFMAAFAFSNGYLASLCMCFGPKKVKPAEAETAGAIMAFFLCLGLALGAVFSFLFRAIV
# Melanocortin receptor 3 = Melanocortin receptor 3 (Homo sapiens, UniProt P41968)
# Progesterone receptor [4] = molecular target: T1, Progesterone receptor; format: functional; remark: listed apart in the source
# [5] = molecular target: 5-hydroxytryptamine receptor 2B (Homo sapiens, UniProt P41595); format: functional, cell-based
# B2 bradykinin receptor = molecular target: T3, B2 bradykinin receptor (Homo sapiens, UniProt P30411)
# T3 sequence (P30411 whole entry): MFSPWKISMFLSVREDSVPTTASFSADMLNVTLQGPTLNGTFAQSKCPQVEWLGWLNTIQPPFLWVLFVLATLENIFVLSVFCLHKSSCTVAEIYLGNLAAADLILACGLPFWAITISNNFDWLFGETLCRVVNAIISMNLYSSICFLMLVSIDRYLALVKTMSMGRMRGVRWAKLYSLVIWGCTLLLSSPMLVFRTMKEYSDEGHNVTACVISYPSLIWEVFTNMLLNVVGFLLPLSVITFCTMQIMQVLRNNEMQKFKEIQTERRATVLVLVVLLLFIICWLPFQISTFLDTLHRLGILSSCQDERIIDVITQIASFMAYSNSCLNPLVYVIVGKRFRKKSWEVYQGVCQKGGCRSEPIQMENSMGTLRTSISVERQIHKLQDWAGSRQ
# [6] = molecular target: Kappa-type opioid receptor (Homo sapiens, UniProt P41145)
# [7] = molecular target: T4, Muscarinic acetylcholine receptor M2 (Homo sapiens, UniProt P08172); format: functional, cell-based
# T4 sequence (P08172 whole entry): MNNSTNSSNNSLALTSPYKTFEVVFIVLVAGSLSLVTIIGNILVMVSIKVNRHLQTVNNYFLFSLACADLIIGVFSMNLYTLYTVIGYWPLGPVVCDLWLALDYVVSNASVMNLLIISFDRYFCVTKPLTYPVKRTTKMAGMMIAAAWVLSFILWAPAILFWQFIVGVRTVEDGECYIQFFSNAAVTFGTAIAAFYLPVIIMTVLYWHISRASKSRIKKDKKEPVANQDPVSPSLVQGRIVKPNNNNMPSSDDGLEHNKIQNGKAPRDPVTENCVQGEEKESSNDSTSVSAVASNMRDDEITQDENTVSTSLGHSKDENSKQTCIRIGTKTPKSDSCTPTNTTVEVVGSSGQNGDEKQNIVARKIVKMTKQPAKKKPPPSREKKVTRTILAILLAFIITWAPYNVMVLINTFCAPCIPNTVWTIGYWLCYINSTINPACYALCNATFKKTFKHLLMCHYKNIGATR
# [8] = molecular target: T5, Neuropeptide Y receptor type 1 (Homo sapiens, UniProt P25929); details: read-out: AC50
# T5 sequence (P25929 whole entry): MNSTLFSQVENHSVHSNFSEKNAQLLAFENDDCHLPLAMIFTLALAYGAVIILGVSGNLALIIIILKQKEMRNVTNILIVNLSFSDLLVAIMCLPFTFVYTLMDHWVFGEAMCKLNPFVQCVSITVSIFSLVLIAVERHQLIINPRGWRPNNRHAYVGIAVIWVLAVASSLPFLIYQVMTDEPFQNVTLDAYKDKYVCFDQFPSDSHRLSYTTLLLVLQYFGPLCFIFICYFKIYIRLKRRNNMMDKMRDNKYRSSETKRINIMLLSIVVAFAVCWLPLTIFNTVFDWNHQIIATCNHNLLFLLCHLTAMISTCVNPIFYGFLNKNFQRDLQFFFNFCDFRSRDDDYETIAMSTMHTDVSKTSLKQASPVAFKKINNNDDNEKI
# Further: assay procedure not described here.
# Sequence of 5-hydroxytryptamine receptor 2B (P41595 whole entry): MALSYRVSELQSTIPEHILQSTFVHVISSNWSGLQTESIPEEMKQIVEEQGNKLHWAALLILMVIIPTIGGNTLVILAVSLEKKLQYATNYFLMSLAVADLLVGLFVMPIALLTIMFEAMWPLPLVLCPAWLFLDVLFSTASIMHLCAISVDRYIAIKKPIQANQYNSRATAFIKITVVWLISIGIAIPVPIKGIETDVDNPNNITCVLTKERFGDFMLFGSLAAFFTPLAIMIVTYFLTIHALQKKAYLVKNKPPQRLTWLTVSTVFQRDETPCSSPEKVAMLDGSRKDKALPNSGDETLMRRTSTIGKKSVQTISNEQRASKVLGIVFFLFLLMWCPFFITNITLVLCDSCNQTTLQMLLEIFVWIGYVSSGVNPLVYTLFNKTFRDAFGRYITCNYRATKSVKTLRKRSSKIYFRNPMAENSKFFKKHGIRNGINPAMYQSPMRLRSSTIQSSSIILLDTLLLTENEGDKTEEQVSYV
# Sequence of Kappa-type opioid receptor (P41145 whole entry): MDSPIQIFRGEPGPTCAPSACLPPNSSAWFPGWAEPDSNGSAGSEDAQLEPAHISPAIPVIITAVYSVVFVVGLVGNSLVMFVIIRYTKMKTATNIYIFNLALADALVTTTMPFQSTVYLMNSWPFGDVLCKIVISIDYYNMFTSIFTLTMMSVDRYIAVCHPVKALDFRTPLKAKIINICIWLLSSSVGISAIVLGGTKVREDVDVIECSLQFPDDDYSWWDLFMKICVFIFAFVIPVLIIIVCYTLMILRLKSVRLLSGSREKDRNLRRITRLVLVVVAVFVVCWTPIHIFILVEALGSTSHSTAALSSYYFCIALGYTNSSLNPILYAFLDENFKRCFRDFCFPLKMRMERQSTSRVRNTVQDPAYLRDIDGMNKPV
# Sequence of Melanocortin receptor 3 (P41968 whole entry): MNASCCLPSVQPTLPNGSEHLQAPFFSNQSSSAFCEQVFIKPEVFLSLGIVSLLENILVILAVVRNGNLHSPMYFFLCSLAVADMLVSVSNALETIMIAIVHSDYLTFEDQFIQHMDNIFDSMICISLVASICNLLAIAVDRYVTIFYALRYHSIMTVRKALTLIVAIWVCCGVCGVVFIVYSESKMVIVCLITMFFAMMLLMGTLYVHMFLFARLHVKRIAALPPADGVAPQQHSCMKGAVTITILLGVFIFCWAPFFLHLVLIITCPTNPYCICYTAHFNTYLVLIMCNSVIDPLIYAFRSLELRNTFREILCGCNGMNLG
# Sequence of Gamma-aminobutyric acid receptor subunit alpha-1 (P62813 whole entry): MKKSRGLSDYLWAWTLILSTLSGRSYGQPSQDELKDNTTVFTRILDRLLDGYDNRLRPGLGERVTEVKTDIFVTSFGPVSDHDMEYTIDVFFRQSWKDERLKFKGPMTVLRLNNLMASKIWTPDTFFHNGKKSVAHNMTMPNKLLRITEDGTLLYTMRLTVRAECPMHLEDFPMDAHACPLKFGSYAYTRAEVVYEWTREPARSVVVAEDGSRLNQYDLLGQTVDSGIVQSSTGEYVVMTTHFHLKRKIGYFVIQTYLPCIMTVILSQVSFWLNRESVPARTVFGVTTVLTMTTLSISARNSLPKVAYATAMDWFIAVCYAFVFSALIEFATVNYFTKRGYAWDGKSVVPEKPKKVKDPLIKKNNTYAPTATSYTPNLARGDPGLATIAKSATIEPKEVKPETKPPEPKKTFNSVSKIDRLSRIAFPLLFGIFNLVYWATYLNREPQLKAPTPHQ
structure (smiles),measurement,setting,value
CCCN(CCC)C(=O)Cc1c(-c2ccc(Cl)cc2)nc2ccc(Cl)cn12 [ALPIDEM],AC50,[1],0.02 µM
same,AC50,Progesterone receptor [2],> 30 µM
same,AC50,[3],> 30 µM
same,AC50,Melanocortin receptor 3,> 30 µM
same,AC50,Progesterone receptor [4],> 30 µM
same,AC50,[5],> 30 µM
same,AC50,B2 bradykinin receptor,> 30 µM
same,AC50,[6],13 µM
same,AC50,[7],> 30 µM
same,AC50,[8],> 30 µM
CC[C@H](C)C[C@H](C)CCCCCCCCC(=O)N[C@H]1C[C@@H](O)[C@@H](NCCN)NC(=O)[C@@H]2[C@@H](O)CCN2C(=O)[C@H]([C@H](O)CCN)NC(=O)[C@H]([C@H](O)[C@@H](O)c2ccc(O)cc2)NC(=O)[C@@H]2C[C@@H](O)CN2C(=O)[C@H]([C@@H](C)O)NC1=O [CASPOFUNGIN],AC50,[1],> 30 µM
C/C=C/C/C=C/CCC(=O)[C@H]1O[C@H]1C(N)=O [CERULENIN],AC50,[1],> 30 µM
CN(C)[C@@H]1C(O)=C(C(N)=O)C(=O)[C@@]2(O)C(O)=C3C(=O)c4c(O)ccc(Cl)c4[C@@](C)(O)[C@H]3C[C@@H]12 [CHLORTETRACYCLINE],AC50,[1],> 30 µM
OC[C@H]1O[C@@H](c2ccc(Cl)c(Cc3ccc(O[C@H]4CCOC4)cc3)c2)[C@H](O)[C@@H](O)[C@@H]1O [EMPAGLIFLOZIN],AC50,[1],> 30 µM
CC(C)(O)CNc1nc(Nc2ccnc(C(F)(F)F)c2)nc(-c2cccc(C(F)(F)F)n2)n1 [ENASIDENIB],AC50,[1],> 30 µM
C#C[C@]1(O)CC[C@H]2[C@@H]3CCC4=CC(=O)CC[C@@H]4[C@H]3C(=C)C[C@@]21CC [ETONOGESTREL],AC50,[1],28 µM
same,AC50,[5],> 30 µM
same,AC50,[6],> 30 µM
CCc1nc(C(N)=O)c(Nc2ccc(N3CCC(N4CCN(C)CC4)CC3)c(OC)c2)nc1NC1CCOCC1 [GILTERITINIB],AC50,[1],> 30 µM
O=C(O)CO [GLYCOLIC ACID],AC50,[1],> 30 µM
CC[C@H](c1ccc(O)cc1)[C@@H](CC)c1ccc(O)cc1 [HEXESTROL],AC50,[1],> 30 µM
O=C1/C(=C2\Nc3ccc(S(=O)(=O)O)cc3C2=O)Nc2ccc(S(=O)(=O)O)cc21 [INDIGOTINDISULFONATE],AC50,[1],> 30 µM
OC[C@H]1O[C@@H](c2ccc(F)c(Cc3cc4ccccc4s3)c2)[C@H](O)[C@@H](O)[C@@H]1O [IPRAGLIFLOZIN],AC50,[1],> 30 µM
CC(C)C[C@H](NC(=O)CNC(=O)c1cc(Cl)ccc1Cl)B(O)O [IXAZOMIB],AC50,[1],> 30 µM
C=CCN1CC[C@]23CCCC[C@H]2[C@H]1Cc1ccc(O)cc13 [LEVALLORPHAN],AC50,[1],> 30 µM
CN(CC1(C)CCCO1)S(=O)(=O)c1ccc(Cl)c(S(N)(=O)=O)c1 (configuration not stated) [MEFRUSIDE],AC50,[1],> 30 µM
same,AC50,[5],> 30 µM
same,AC50,[6],> 30 µM
CC(=O)O[C@]1(C(C)=O)CC[C@H]2[C@@H]3C=C(C)C4=CC(=O)CC[C@@H]4[C@H]3CC[C@@]21C [NOMEGESTROL ACETATE],AC50,[1],4.4 µM
same,AC50,Progesterone receptor [2],0.028 µM
same,AC50,[3],> 30 µM
same,AC50,Melanocortin receptor 3,> 30 µM
same,AC50,[5],> 30 µM
same,AC50,[6],> 30 µM
same,AC50,[7],> 30 µM
O=C(O)c1cc(/N=N/c2ccc(O)c(C(=O)O)c2)ccc1O [OLSALAZINE],AC50,[1],> 30 µM
CCOC(=O)c1c(C)cc2c(CO)n[nH]c(=O)c2c1C [OXAGRELATE],AC50,[1],> 30 µM
CCn1cc(C(=O)O)c(=O)c2cc3c(cc21)OCO3 [OXOLINIC ACID],AC50,[1],> 30 µM
N#Cc1ccc2c(c1)N(CCCN1CCC(O)CC1)c1ccccc1S2 [PERICIAZINE],AC50,[1],29.8 µM
FC(F)(F)c1ccc(CNc2ccc(Cc3c[nH]c4ncc(Cl)cc34)cn2)cn1 [PEXIDARTINIB],AC50,[1],> 30 µM
Nc1ccc(C(=O)Oc2ccccc2)c(O)c1 [PHENYL AMINOSALICYLATE],AC50,[1],> 30 µM
CN1CCC(=C2c3ccccc3Sc3ccccc32)CC1 [PIMETHIXENE],AC50,[1],> 30 µM
CN1C(C(=O)Nc2ccccn2)=C(O)c2ccccc2S1(=O)=O [PIROXICAM],AC50,[1],> 30 µM
same,AC50,Progesterone receptor [2],> 10 µM
same,AC50,[3],> 10 µM
same,AC50,Melanocortin receptor 3,> 10 µM
same,AC50,Progesterone receptor [4],> 10 µM
same,AC50,[5],> 10 µM
same,AC50,B2 bradykinin receptor,> 10 µM
same,AC50,[6],> 10 µM
same,AC50,[7],> 10 µM
same,AC50,[8],> 10 µM
CC[C@@]1(O)C(=O)OCc2c1cc1n(c2=O)Cc2cc3c([N+](=O)[O-])cccc3nc2-1 [RUBITECAN],AC50,[1],> 30 µM
N[C@@H](CO)C(=O)O [SERINE],AC50,[1],> 30 µM
OC[C@@H](O)[C@@H](O)[C@H](O)[C@@H](O)CO [SORBITOL],AC50,[1],> 30 µM
OC[C@H]1O[C@@](CO)(O[C@H]2O[C@H](CO)[C@@H](O)[C@H](O)[C@H]2O)[C@@H](O)[C@@H]1O [SUCROSE],AC50,[1],> 30 µM
same,AC50,Progesterone receptor [2],> 30 µM
same,AC50,[3],> 30 µM
same,AC50,Melanocortin receptor 3,> 30 µM
same,AC50,Progesterone receptor [4],> 30 µM
same,AC50,[5],> 30 µM
same,AC50,B2 bradykinin receptor,> 30 µM
same,AC50,[6],> 30 µM
same,AC50,[7],> 30 µM
same,AC50,[8],> 30 µM
CC[C@H]1OC(=O)[C@H](C)C(=O)[C@H](C)[C@@H](O[C@@H]2O[C@H](C)C[C@H](N(C)C)[C@H]2O)[C@](C)(OC)C[C@@H](C)C(=O)[C@H](C)[C@H]2N(CCCCn3cnc(-c4cccnc4)c3)C(=O)O[C@]12C [TELITHROMYCIN],AC50,[1],> 30 µM
COc1cc2nc(N3CCN(C(=O)C4CCCO4)CC3)nc(N)c2cc1OC (configuration not stated) [TERAZOSIN],AC50,[1],> 30 µM
same,AC50,[3],> 30 µM
same,AC50,Melanocortin receptor 3,> 30 µM
same,AC50,[5],> 10 µM
same,AC50,B2 bradykinin receptor,> 30 µM
same,AC50,[7],> 10 µM
same,AC50,[8],> 30 µM
CC(=O)Oc1cc(C(F)(F)F)ccc1C(=O)O [TRIFLUSAL],AC50,[1],> 30 µM
CCCC(CCC)C(=O)O [VALPROIC ACID],AC50,[1],> 30 µM
same,AC50,[3],> 30 µM
same,AC50,Melanocortin receptor 3,> 30 µM
same,AC50,[5],> 10 µM
same,AC50,B2 bradykinin receptor,> 30 µM
same,AC50,[6],> 10 µM
same,AC50,[7],> 10 µM
same,AC50,[8],> 30 µM
